The text below walks through data of patent US20250092065A1, “2-(INDAZOL-5-YL)-6-(PIPERIDIN-4-YL)-1,7-NAPHTHYRIDINE DERIVATIVES AND RELATED COMPOUNDS AS MODULATORS FOR SPLICING NUCLEIC ACIDS AND FOR THE TREATMENT OF PROLIFERATIVE DISEASES” (REMIX THERAPEUTICS INC., priority 2022, published 2025).

The structures appear in SMILES notation. pIC50: −log10 of the molar value. Where two headings read alike, the source gives them in different places.

Common to all, as to assay type: cell-based, human
In one test the test system is HTT mRNA. Description: RT-qPCR splicing assay, HTT mRNA canonical (CJ) and alternative (AJ) junction. Particulars: Homo sapiens; for AC50: HTT alternative junction mRNA, read-out: HTT AJ (increase in AJ mRNA, AC50). In a few lines: (§1)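 Junction-specific RT-qPCR read-out: CJ and AJ isoform levels, housekeeper-normalized (GAPDH/GUSB/PPIA), ΔΔCt vs DMSO, converted to RQ then % response. Cells: A673 (DMEM/10% FBS, adhered 24 h) or K562 (IMDM/10% FBS). Compound 11-pt 3-fold, top 10 uM, 24 h, 37 °C.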

The subject of the next test is SMN2 mRNA. Description: RT-qPCR splicing assay, SMN2 mRNA. Particulars: Homo sapiens, canonical junction qPCR panel, Table 4; read-out: SMN2 IC50 (decrease in CJ mRNA levels). An outline of the steps:
as §1

The next test concerns MYB. In words: HiBiT protein abundance assay, MYB (K562 HiBiT knock-in). The conditions noted are these: HiBiT knock-in K562 cells, 24 hours, top dose 10 μM. In a few lines: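 Luminescence readout: Nano-Glo HiBiT lytic detection after 24 h compound exposure of K562 HiBiT knock-in cells, 10000 cells/well. Dosing 10-pt, 3-fold, top 10 μM final. % response vs untreated parental K562 and DMSO controls; 4PL fit, IC50 = concentration giving 50% protein abundance.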

A further test has as its system Target C. Description: HiBiT protein abundance assay, Target C (K562 HiBiT knock-in). Particulars: HiBiT knock-in K562 cells, 24 hours, top dose 10 μM. In a few lines: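 K562 HiBiT knock-in cells (10000/well) were treated 24 h at 37° C with a 10-point 3-fold dilution series (top 10 μM final, ≤0.25% DMSO). HiBiT luminescence was read after lytic LgBiT detection. Percent response used unmodified K562 and DMSO-treated knock-in controls, and IC50 came from a four-parameter fit at 50% of untreated.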

Setting [1] is: HTT canonical junction mRNA, RT-qPCR, read-out: HTT CJ (decrease in CJ mRNA levels, IC50).
The mark [2] stands for this setting: canonical junction qPCR panel, Table 4, read-out: HTT IC50 (decrease in CJ mRNA levels).

With `Cn1cc2cc(-c3ccc4nc(N5CCC(NC6(CF)CC6)C5)ccc4n3)c(O)c(F)c2n1` (stereo in doubt) [Compound 357, 7-fluoro-5-{6-[(3S)-3-{[1-(fluoromethyl)cyclopropyl]amino}pyrrolidin-1-yl]-1,5-naphthyridin-2-yl}-2-methylindazol-6-ol], in the test on HTT mRNA (RT-qPCR), the AC50 was less than 100 nM. Further, the pIC50 with HTT mRNA (setting [1]), with HTT mRNA (setting [2]), with SMN2 mRNA, with MYB and in the test on Target C was more than 7.00 each time.
Turning to `Cn1cc2cc(-c3ccc4nc(N5CCC(N)C5)ccc4n3)c(O)c(F)c2n1` (stereo in doubt) [Compound 363, 5-{6-[(3R)-3-aminopyrrolidin-1-yl]-1,5-naphthyridin-2-yl}-7-fluoro-2-methylindazol-6-ol], the AC50 in the test on HTT mRNA (RT-qPCR) was less than 100 nM. Moreover, the pIC50 in the test on HTT mRNA (setting [1]), in the test on HTT mRNA (setting [2]), with SMN2 mRNA, in the test with MYB and in the test on Target C was more than 7.00 in each case.
On to `Cc1nc2c(F)c(O)c(-c3ccc4nc(N5CC[C@@H](N[C@H]6C[C@@H](F)C6)C5)ccc4n3)cc2o1` (stereo in doubt) [Compound 375], for which the AC50 with HTT mRNA (RT-qPCR) is less than 100 nM. For the same compound, the pIC50 in the test with HTT mRNA (setting [1]), in the test with HTT mRNA (setting [2]), in the test on SMN2 mRNA, in the test on MYB and in the test on Target C was more than 7.00 in each case.
Turning to `Cc1nc2c(C)c(O)c(-c3ccc4nc(N5CC[C@@H](N[C@H]6C[C@@H](F)C6)C5)ccc4n3)cc2o1` (stereo in doubt) [Compound 376], the AC50 in the test with HTT mRNA (RT-qPCR) was in the range of 100 to 1000 nM. In addition, the pIC50 with HTT mRNA (setting [1]), in the test with HTT mRNA (setting [2]), in the test with SMN2 mRNA, in the test on MYB and with Target C was more than 7.00 throughout.
For `Cc1nc2c(C)c(O)c(-c3ccc4nc(N5CC[C@H](N[C@H]6C[C@@H](F)C6)C5)ccc4n3)cc2o1` (stereo in doubt) [Compound 377], the AC50 with HTT mRNA (RT-qPCR) was less than 100 nM. Besides, the pIC50 in the test with HTT mRNA (setting [1]), with HTT mRNA (setting [2]), with SMN2 mRNA, in the test with MYB and with Target C was more than 7.00 in each case.
Regarding `Cc1nc2cc(O)c(-c3ccc4nc(N5CC[C@@H](N[C@H]6C[C@@H](F)C6)C5)ccc4n3)cc2o1` (stereo in doubt) [Compound 395], the AC50 with HTT mRNA (RT-qPCR) is 100 to 1000 nM. The pIC50 is 6.00 to 7.00 with HTT mRNA (setting [1]); 6.00 to 7.00 in the test on HTT mRNA (setting [2]); more than 7.00 with SMN2 mRNA; 6.00 to 7.00 in the test with MYB; 6.00 to 7.00 in the test on Target C.
Take `Cc1nc2cc(O)c(-c3ccc4nc(N5CC[C@H](N[C@H]6C[C@@H](F)C6)C5)ccc4n3)cc2o1` (stereo in doubt) [Compound 396]: the AC50 in the test with HTT mRNA (RT-qPCR) is less than 100 nM. Further, the negative-log IC50 (pIC50) in the test with HTT mRNA (setting [1]) was more than 7.00; with HTT mRNA (setting [2]), more than 7.00; with SMN2 mRNA, more than 7.00; in the test with MYB it was 6.00 to 7.00; in the test with Target C, more than 7.00.
Take `Cn1cc2cc(-c3ccc4nc(N5CC[C@@H](NC6(CF)CC6)C5)ccc4n3)c(O)cc2n1` [Compound 354, 5-{6-[(3R)-3-{[1-(fluoromethyl)cyclopropyl]amino}pyrrolidin-1-yl]-1,5-naphthyridin-2-yl}-2-methylindazol-6-ol]: in the test on HTT mRNA (RT-qPCR), the AC50 is less than 100 nM. For the same compound, the pIC50 in the test with HTT mRNA (setting [1]), in the test with HTT mRNA (setting [2]), with SMN2 mRNA, in the test on MYB and in the test with Target C was more than 7.00 throughout.
For the compound `Cn1cc2cc(-c3ccc4nc(N5CC[C@H](NC6(CF)CC6)C5)ccc4n3)c(O)cc2n1` [Compound 355, 5-{6-[(3S)-3-{[1-(fluoromethyl)cyclopropyl]amino}pyrrolidin-1-yl]-1,5-naphthyridin-2-yl}-2-methylindazol-6-ol], the concentration at half-maximal activity (AC50) with HTT mRNA (RT-qPCR) was less than 100 nM. Further, the pIC50 in the test on HTT mRNA (setting [1]), with HTT mRNA (setting [2]), in the test on SMN2 mRNA, in the test on MYB and in the test on Target C was more than 7.00 throughout.
For `Cc1c(O)c(-c2ccc3nc(N4CCC(NC5(CF)CC5)C4)ccc3n2)cc2cn(C)nc12` (stereo not drawn) [Compound 360, 5-[6-(3-{[1-(fluoromethyl)cyclopropyl]amino}pyrrolidin-1-yl)-1,5-naphthyridin-2-yl]-2,7-dimethylindazol-6-ol], in the test with HTT mRNA (RT-qPCR), the AC50 is less than 100 nM. Also, the pIC50 in the test on HTT mRNA (setting [1]), in the test on HTT mRNA (setting [2]), in the test with SMN2 mRNA, in the test on MYB and in the test on Target C was more than 7.00 each time.
Consider `Cc1c(O)c(-c2cc(C(C)O)c3nc(N4CCNCC4)ccc3n2)cc2cn(C)nc12` (stereo not drawn) [Compound 364, 5-[4-(1-hydroxyethyl)-6-(piperazin-1-yl)-1,5-naphthyridin-2-yl]-2,7-dimethylindazol-6-ol], for which the AC50 in the test with HTT mRNA (RT-qPCR) is more than 10000 nM. Moreover, the pIC50 in the test with HTT mRNA (setting [1]) was less than 5.00; in the test on HTT mRNA (setting [2]), less than 5.00; with SMN2 mRNA, 6.00 to 7.00; with MYB it was 5.00 to 6.00; in the test on Target C, 5.00 to 6.00.
`Cc1c(O)c(-c2ncc3nc(C4CCNCC4)ccc3n2)cc2cn(C)nc12` [Compound 370, 2,7-dimethyl-5-[6-(piperidin-4-yl)pyrido[3,2-d]pyrimidin-2-yl]indazol-6-ol]: the AC50 in the test with HTT mRNA (RT-qPCR) lay within 1000 to 10000 nM. Also, the pIC50 in the test on HTT mRNA (setting [1]) is 6.00 to 7.00; in the test on HTT mRNA (setting [2]) it was 6.00 to 7.00; in the test on SMN2 mRNA it was more than 7.00; in the test with MYB it was 6.00 to 7.00; in the test on Target C, 6.00 to 7.00.
For the compound `Cc1nc2c(F)c(O)c(-c3ccc4nc(N5CC[C@H](N[C@H]6C[C@@H](F)C6)C5)ccc4n3)cc2o1` [Compound 374, 4-fluoro-2-methyl-6-[6-(3-{[(1r,3r)-3-fluorocyclobutyl]amino}pyrrolidin-1-yl)-1,5-naphthyridin-2-yl]-1,3-benzoxazol-5-ol], the AC50 in the test with HTT mRNA (RT-qPCR) was less than 100 nM. Besides, the pIC50 with HTT mRNA (setting [1]), in the test on HTT mRNA (setting [2]), with SMN2 mRNA, with MYB and with Target C was more than 7.00 each time.
Take `CNC1CCN(c2ccc3nc(-c4cc(C#N)c5nc(C)cn5c4)ncc3n2)C1` (stereo not drawn) [Compound 382, 2-methyl-6-{6-[3-(methylamino)pyrrolidin-1-yl]pyrido[3,2-d]pyrimidin-2-yl}imidazo[1,2-a]pyridine-8-carbonitrile]: the AC50 with HTT mRNA (RT-qPCR) was in the range of 100 to 1000 nM. The pIC50 is 6.00 to 7.00 in the test with HTT mRNA (setting [1]); 6.00 to 7.00 with HTT mRNA (setting [2]); more than 7.00 in the test with SMN2 mRNA; more than 7.00 in the test on MYB; 5.00 to 6.00 in the test with Target C.
On to `Cn1cc2cc(-c3ccc4nc(N5CC[C@H](NC6CC(F)(F)C6)C5)ccc4n3)c(O)cc2n1` [Compound 384], for which the AC50 with HTT mRNA (RT-qPCR) lay in the range of 1000 to 10000 nM. The pIC50 was 5.00 to 6.00 with HTT mRNA (setting [1]); 5.00 to 6.00 in the test on HTT mRNA (setting [2]); more than 7.00 with SMN2 mRNA; 5.00 to 6.00 with MYB; 5.00 to 6.00 in the test on Target C.
With `Cn1cc2cc(-c3ccc4nc(N5CC[C@@H](NC6CC(F)(F)C6)C5)ccc4n3)c(O)cc2n1` [Compound 385], the AC50 in the test with HTT mRNA (RT-qPCR) is 100 to 1000 nM. In addition, the pIC50 was more than 7.00 in the test on HTT mRNA (setting [1]); more than 7.00 in the test with HTT mRNA (setting [2]); more than 7.00 in the test with SMN2 mRNA; 6.00 to 7.00 with MYB; 6.00 to 7.00 with Target C.
Regarding `Cn1cc2cc(-c3ccc4nc(N5CCC(NCC6CC6)C5)ccc4n3)c(O)c(F)c2n1` (stereo not drawn) [Compound 387, 5-(6-{3-[(cyclopropylmethyl)amino]pyrrolidin-1-yl}-1,5-naphthyridin-2-yl)-7-fluoro-2-methylindazol-6-ol], the AC50 with HTT mRNA (RT-qPCR) was less than 100 nM. Also, the pIC50 in the test with HTT mRNA (setting [1]), in the test on HTT mRNA (setting [2]), in the test on SMN2 mRNA, in the test on MYB and in the test on Target C was more than 7.00 each time.
Regarding `CC(C)NC1CCN(c2ccc3nc(-c4cc5cn(C)nc5c(F)c4O)ccc3n2)C1` (stereo not drawn) [Compound 388, 7-fluoro-5-{6-[3-(isopropylamino)pyrrolidin-1-yl]-1,5-naphthyridin-2-yl}-2-methylindazol-6-ol], in the test with HTT mRNA (RT-qPCR), the AC50 was less than 100 nM. Further, the pIC50 in the test with HTT mRNA (setting [1]), with HTT mRNA (setting [2]), with SMN2 mRNA, with MYB and in the test with Target C was more than 7.00 in each case.
Regarding `Cc1nc2cc(O)c(-c3ccc4nc(N5CCC(NCC6CC6)C5)ccc4n3)cc2o1` (stereo not drawn) [Compound 389, 6-(6-{3-[(cyclopropylmethyl)amino]pyrrolidin-1-yl}-1,5-naphthyridin-2-yl)-2-methyl-1,3-benzoxazol-5-ol], the AC50 with HTT mRNA (RT-qPCR) lay within 100 to 1000 nM. For the same compound, the pIC50 in the test on HTT mRNA (setting [1]), in the test on HTT mRNA (setting [2]), in the test on SMN2 mRNA, in the test with MYB and in the test on Target C was more than 7.00 each time.
